Data: ChEMBL document CHEMBL2424654, “Optimization of enzyme-based ultrasonic/microwave-assisted extraction and evaluation of antioxidant activity of orcinol glucoside from the rhizomes of Curculigo orchioides Gaertn” (Med Chem Res, 2013)
Converted amounts (≈) assume the structure as drawn. The source made the active and inactive calls. The rule behind the calls is not given here.

Key:
Assay type in all cases: functional
[1] = Antioxidant activity assessed as reducing power at 0.5 to 2 mg/ml
[2] = system: Radical scavenging activity; test: Antioxidant activity assessed as DPPH radical scavenging activity at 2 mg/ml
[3] = system: Radical scavenging activity; test: Antioxidant activity assessed as DPPH radical scavenging activity
[4] = Antioxidant activity assessed as superoxide anion radical scavenging activity at 2 mg/ml
[5] = Antioxidant activity assessed as hydroxyl radical scavenging activity at 2 mg/ml
[6] = Antioxidant activity assessed as hydroxyl radical scavenging activity

IC50 [3]: 900 µg/mL (≈ 3.14 mM)
SMILES: Cc1cc(O)cc(O[C@@H]2O[C@H](CO)[C@@H](O)[C@H](O)[C@H]2O)c1
Activity [1]: Active
Activity [2]: 69.3%
Activity [4]: 70.2%
Activity [5]: 77.5%
Activity [6]: Dose-dependent effect
